Source: the supplement of paper PMC10307832

Columns and labels:
Experiment in all cases: relative viability (nuclei count vs DMSO), 5 days (fraction); higher = more cells survive
[1] = compound: OCc1c[nH]c2ccccc12 [Indole-3-carbinol] + CC1(C)CCC(c2ccc(Cl)cc2)=C(CN2CCN(c3ccc(C(=O)NS(=O)(=O)c4ccc(N[C@H](CCN5CCOCC5)CSc5ccccc5)c(S(=O)(=O)C(F)(F)F)c4)cc3)CC2)C1 [Navitoclax] (partner 0.5 µM)
In short: (§1)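 Relative viability equals treated-well nuclei counts divided by vehicle-well nuclei counts. Counts came from 4× images of lung cancer cell lines grown in 1536-well plates for 5 days after pin-tool dosing on the day after seeding. Dosing used one drug alone or a fixed anchor-drug dose plus five library-drug doses (not always all listed) in √10 steps, and values are medians of duplicate plates.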

[2] = compound: OCc1c[nH]c2ccccc12 [Indole-3-carbinol] + CCNC(=O)c1noc(-c2cc(C(C)C)c(O)cc2O)c1-c1ccc(CN2CCOCC2)cc1 [Luminespib] (partner 0.01 µM)
In short: as §1

[3] = compound: OCc1c[nH]c2ccccc12 [Indole-3-carbinol] + CC(=O)Nc1cccc(-n2c(=O)n(C3CC3)c(=O)c3c(Nc4ccc(I)cc4F)n(C)c(=O)c(C)c32)c1 [Trametinib] (partner 0.02 µM)
In short: as §1

[4] = compound: OCc1c[nH]c2ccccc12 [Indole-3-carbinol] + NC(=O)Nc1cc(-c2cccc(F)c2)sc1C(=O)N[C@H]1CCCNC1 [AZD7762] (partner 0.2 µM)
In short: as §1

[5] = compound: OCc1c[nH]c2ccccc12 [Indole-3-carbinol] + Nc1ncn([C@H]2C[C@H](O)[C@@H](CO)O2)c(=O)n1 [Decitabine] (partner 2 µM)
In short: as §1

Cell Line | relative viability ([1]; first compound 0.253 µM) | relative viability ([1]; first compound 0.8 µM) | relative viability ([1]; first compound 2.53 µM) | relative viability ([1]; first compound 8 µM) | relative viability ([2]; first compound 0.253 µM) | relative viability ([2]; first compound 0.8 µM) | relative viability ([2]; first compound 2.53 µM) | relative viability ([2]; first compound 8 µM) | relative viability ([3]; first compound 0.253 µM) | relative viability ([3]; first compound 0.8 µM) | relative viability ([3]; first compound 2.53 µM) | relative viability ([3]; first compound 8 µM) | relative viability ([4]; first compound 0.253 µM) | relative viability ([4]; first compound 0.8 µM) | relative viability ([4]; first compound 2.53 µM) | relative viability ([4]; first compound 8 µM) | relative viability ([5]; first compound 0.253 µM) | relative viability ([5]; first compound 0.8 µM) | relative viability ([5]; first compound 2.53 µM) | relative viability ([5]; first compound 8 µM)
HCC-827 | 1.04 | 1.09 | 1.05 | 0.947 | 0.579 | 0.622 | 0.67 | 0.644 | 0.516 | 0.542 | 0.505 | 0.533 | 0.228 | 0.192 | 0.213 | 0.265 | 0.379 | 0.337 | 0.312 | 0.34
HOP-62 | 1.09 | 0.817 | 1.28 | 0.851 | 0.911 | 0.927 | 0.937 | 0.831 | 0.348 | 0.373 | 0.358 | 0.32 | 0.65 | 0.61 | 0.631 | 0.607 | 0.187 | 0.218 | 0.228 | 0.196
LC-2-ad | 0.644 | 0.553 | 0.376 | 0.399 | 1.13 | 1.15 | 1.26 | 0.953 | 0.893 | 0.879 | 0.897 | 0.869 | 0.865 | 0.873 | 0.828 | 0.82 | 0.715 | 0.883 | 0.71 | 0.774
LCLC-97TM1 | 0.408 | 0.387 | 0.499 | 0.465 | 0.823 | 0.935 | 0.859 | 0.865 | 0.215 | 0.215 | 0.178 | 0.23 | 0.39 | 0.297 | 0.236 | 0.234 | 0.259 | 0.249 | 0.199 | 0.223
LCLC-103H | – | – | – | – | 0.873 | 0.939 | 0.901 | 0.811 | 0.701 | 0.614 | 0.651 | 0.571 | 0.802 | 0.786 | 0.86 | 0.81 | 0.789 | 0.675 | 0.668 | 0.623
NCI-H358 | – | – | – | – | 0.366 | 0.447 | 0.458 | 0.233 | 0.119 | 0.122 | 0.139 | 0.121 | 0.56 | 0.489 | 0.591 | 0.507 | 0.204 | 0.207 | 0.304 | 0.207
NCI-H520 | 1.12 | 0.999 | 1.14 | 1.12 | 0.188 | 0.178 | 0.219 | 0.211 | 0.702 | 0.575 | 0.741 | 0.772 | – | – | – | – | 0.526 | 0.541 | 0.505 | 0.541
NCI-H522 | – | – | – | – | 1.17 | 1.05 | 1.1 | 0.949 | 0.794 | 0.798 | 0.839 | 0.749 | 0.78 | 0.92 | 0.956 | 0.912 | 0.698 | 0.699 | 0.803 | 0.689
NCI-H650 | – | – | – | – | 0.785 | 0.882 | 0.844 | 0.647 | 1.13 | 0.958 | 1.04 | 0.956 | 1.01 | 1.21 | 0.967 | 1.04 | 0.354 | 0.323 | 0.344 | 0.338
NCI-H661 | – | – | – | – | 0.922 | 0.952 | 0.965 | 0.895 | 0.526 | 0.564 | 0.606 | 0.58 | – | – | – | – | 0.551 | 0.547 | 0.563 | 0.547
NCI-H1650 | 1.32 | 1.16 | 1.26 | 1.1 | 0.167 | – | 0.19 | 0.221 | 0.565 | 0.563 | 0.561 | 0.498 | – | – | – | – | 0.412 | 0.352 | 0.493 | 0.34
NCI-H1703 | 1.01 | 1.48 | 1.47 | 1.18 | – | – | – | – | – | – | – | – | 0.155 | – | 0.113 | 0.103 | – | – | – | –
NCI-H2009 | 1.16 | 1.2 | 1.18 | 1.02 | 1.05 | 1.08 | 1.05 | 0.893 | 0.285 | 0.294 | 0.278 | 0.281 | – | – | – | – | 0.406 | 0.346 | 0.376 | 0.381
NCI-H2023 | 1.01 | 1.05 | 0.977 | 0.954 | 0.526 | 0.751 | 0.818 | 0.707 | 0.525 | 0.532 | 0.555 | 0.473 | – | – | – | – | 0.213 | 0.213 | 0.212 | 0.198
NCI-H2228 | 0.845 | 1.06 | 0.91 | 0.674 | 0.108 | 0.19 | 0.229 | 0.151 | 0.576 | 0.614 | 0.501 | 0.581 | – | – | – | – | – | – | – | –
NCI-H2342 | – | – | – | – | 0.867 | 0.759 | 0.752 | 0.74 | 0.824 | 0.931 | 0.866 | 0.764 | 0.576 | 0.455 | 0.456 | 0.453 | 0.822 | 0.743 | 0.765 | 0.765
SK-LU-1 | 0.899 | 0.783 | 0.795 | 0.653 | 0.214 | 0.228 | 0.211 | 0.203 | 0.637 | 0.453 | 0.469 | 0.582 | – | – | – | – | 0.689 | 0.626 | 0.757 | 0.719
SK-MES-1 | 1.28 | 1.3 | 1.18 | 1.18 | 0.751 | 0.88 | 0.667 | 0.798 | 0.539 | 0.627 | 0.56 | 0.54 | – | – | – | – | 0.341 | 0.415 | 0.413 | 0.348
SW 1573 | 1.1 | 1.13 | 1.03 | 0.901 | 0.183 | 0.248 | 0.303 | 0.138 | 0.512 | 0.605 | 0.534 | 0.564 | – | – | – | – | 0.48 | 0.535 | 0.636 | 0.417
UMC-11 | 0.259 | 0.308 | 0.329 | 0.325 | 1.01 | 0.953 | 1.04 | 1.01 | 0.713 | 0.727 | 0.675 | 0.683 | – | – | – | – | 0.608 | 0.638 | 0.709 | 0.593
